The numbers were not newly measured in patent US20070072813A1, “Methods for preventing and treating metabolic disorders and new pyrazole-O-glycoside derivatives” (priority 2005, published 2007), which cites them from elsewhere.

The conditions of this data set: metformin on its own, in the diabetic.

For `CN(C)C(=N)N=C(N)N` [metformin], the “average improvement in the HbA1c value” is reported as 1.0-1.5%.
